Test results published in article PMC10935294, “Biodirected Screening and Preparation of Larimichthys crocea Angiotensin-I-Converting Enzyme-Inhibitory Peptides by a Combined In Vitro and In Silico Approach” (Molecules, 2024).
Where two headings read alike, the source gives them in different places. No end group written: not given here.

Assays:
ACE [1] = molecular target: T1, ACE (Oryctolagus cuniculus, UniProt P12822); details: cited from earlier work
T1 sequence (P12822 34-1310): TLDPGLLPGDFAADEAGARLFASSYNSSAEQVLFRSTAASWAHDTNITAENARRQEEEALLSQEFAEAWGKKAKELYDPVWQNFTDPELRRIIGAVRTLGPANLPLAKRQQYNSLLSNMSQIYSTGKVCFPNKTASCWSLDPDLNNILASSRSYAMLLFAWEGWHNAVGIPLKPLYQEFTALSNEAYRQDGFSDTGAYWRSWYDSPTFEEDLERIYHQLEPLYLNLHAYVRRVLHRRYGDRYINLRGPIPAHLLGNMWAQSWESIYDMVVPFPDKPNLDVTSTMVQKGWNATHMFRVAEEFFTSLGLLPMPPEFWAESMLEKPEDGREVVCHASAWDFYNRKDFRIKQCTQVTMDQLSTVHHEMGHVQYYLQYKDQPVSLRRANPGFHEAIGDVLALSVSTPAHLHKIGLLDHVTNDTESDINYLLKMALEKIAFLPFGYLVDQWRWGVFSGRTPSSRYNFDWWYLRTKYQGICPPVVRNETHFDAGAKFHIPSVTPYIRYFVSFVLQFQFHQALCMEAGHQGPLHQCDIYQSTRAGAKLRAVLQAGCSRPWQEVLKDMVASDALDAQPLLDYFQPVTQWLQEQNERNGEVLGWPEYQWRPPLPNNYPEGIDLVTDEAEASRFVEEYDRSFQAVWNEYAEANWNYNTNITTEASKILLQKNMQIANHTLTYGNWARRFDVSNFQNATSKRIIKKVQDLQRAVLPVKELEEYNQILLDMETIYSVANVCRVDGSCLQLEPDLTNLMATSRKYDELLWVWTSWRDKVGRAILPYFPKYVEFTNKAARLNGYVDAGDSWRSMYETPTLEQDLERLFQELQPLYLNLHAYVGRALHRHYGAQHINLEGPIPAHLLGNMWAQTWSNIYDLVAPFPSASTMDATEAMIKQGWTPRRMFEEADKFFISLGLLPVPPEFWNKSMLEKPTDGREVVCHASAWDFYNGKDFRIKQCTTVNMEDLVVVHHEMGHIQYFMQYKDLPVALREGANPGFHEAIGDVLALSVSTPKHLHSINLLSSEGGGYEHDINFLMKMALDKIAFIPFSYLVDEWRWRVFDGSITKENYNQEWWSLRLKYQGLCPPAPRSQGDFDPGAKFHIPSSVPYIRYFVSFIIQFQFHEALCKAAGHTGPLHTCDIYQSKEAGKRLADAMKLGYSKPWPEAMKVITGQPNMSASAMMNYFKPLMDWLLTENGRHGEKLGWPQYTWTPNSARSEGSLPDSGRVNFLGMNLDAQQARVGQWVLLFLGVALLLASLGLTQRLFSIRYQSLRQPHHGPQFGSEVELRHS

ACE [2] = molecular target: T1, ACE; test: ACE-inhibitory activity (HHL substrate, HPLC determination of hippuric acid); format: biochemical; details: synthetic peptides, n = 3, mean ± SD; read-out: IC50 value before digestion
Description: (§1) The methods were previously established in our laboratory. […] Then, 60 μL of peptide samples (1 mg/mL) and 20 μL of ACE solution (0.1 U/mL) were placed in a 37 °C water bath for 10 min, and 50 μL of hippuryl-histidyl-leucine (HHL) solution (1 mM) was added to react for 60 min. Finally, the reaction was terminated by adding 1 M HCL (100 μL). The sample solution of the determination group was replaced by 60 μL boric acid buffer solution (pH = 8.3 0.3 M NaCl) in the control tube. Then, 10 μL boric acid buffer was put into the blank control tube instead of the ACE solution used in the control group. Column chromatography conditions were as follows: Waters-C18, 5 μm, 4.6 mm × 250 mm; detection wavelength: 228 nm; mobile phase: 80% A: 0.1% formic acid + 0.1% trifluoroacetic acid + 98% deionized water, 20% B: 100% acetonitrile; flow rate: 0.8 mL/min; column temperature: 30 °C; injection volume: 10 μL. The ACE-inhibition rate was calculated by Formula (1):(1) ACEinhibitoryrate%=(HAc−HAs)/([HA]c−[HA]H)×100% where HA is the concentration of hippuric acid, [HA]c is the concentration of HA in the control sample, [HA]s is the sample HA concentration, and [HA]H is the blank control HA concentration. The IC50 value was defined as the inhibitor concentration inhibiting 50% of ACE activity. First, the in vitro ACE inhibition rate was determined for samples of different concentrations. Then, the fitting curve and equation were drawn with the sample mass concentration as abscissa and ACE inhibition rate as ordinate. The value of IC50 was calculated according to the fitted curve.

ACE [3] = molecular target: T1, ACE; test: ACE-inhibitory activity after simulated in vitro gastrointestinal digestion (pepsin, trypsin); format: biochemical; details: pepsin pH 2, 2 h, then trypsin pH 7.5, 2 h, 37 °C; mean ± SD
Description: as §1
A slight modification of the research methodology based on the previous study was implemented. With slight modification, the peptide samples were dissolved in deionized water (1 mg/mL), adjusted the pH to 2 with 1 M HCl, pepsin (2% w/w) was added, and the reaction was run for 2 h at 37 °C in the temperature shaker. The reaction was adjusted to pH = 7.5 with 2 M NaOH, and trypsin (2% w/w) was added for 2 h. Then, it was placed in boiling water at 100 °C for 10 min and finally removed to wait for the temperature to decrease to room temperature and centrifuged to detect their ACE activity.

Substance | IC50 (ACE [2]) | IC50 (ACE [3]) | further results
FDGSPVGY | – | – | Form of ACE inhibition (ACE [1]): competitively combine with the center site of ACE
FYEPFM [FYEPFM, Phe-Tyr-Glu-Pro-Phe-Met] | 10.3 ± 0.21 µM | 11.4 ± 0.43 µM | –
IHFGTTGK [IHFGTTGK, Ile-His-Phe-Gly-Thr-Thr-Gly-Lys] | 5.34 ± 0.15 µM | 33.73 ± 0.23 µM | –
INEMLDTK [INEMLDTK, Ile-Asn-Glu-Met-Leu-Asp-Try-Lys] | 6.53 ± 0.21 µM | 15.65 ± 0.15 µM | –
IPYADFK [IPYADFK, Ile-Pro-Tyr-Ala-Asp-Phe-Lys] | 0.63 ± 0.09 µM | 0.8 ± 0.08 µM | –
LYDHLGK [LYDHLGK, Leu-Tyr-Asp-His-Leu-Gly-Lys] | 9.41 ± 0.24 µM | 24.3 ± 0.29 µM | –
NWPWMK [NWPWMK, Asn-Trp-Pro-Trp-Met-Lys] | 6.23 ± 0.34 µM | 7.27 ± 0.17 µM | –
Tyr-Asn-Leu [YNL] | – | – | Reported activity (ACE [1]): ACE-inhibitory activity
VFDGVLRPGQ | – | – | Form of ACE inhibition (ACE [1]): non-competitive inhibition
VGLFPSRSF | – | – | Form of ACE inhibition (ACE [1]; peptide from tilapia skin): non-competitive inhibition
VVLASLK | – | – | IC50 (ACE [1]; peptides from Pacific saury): 962 µM
